Laboratory results: patent US10874650B1 (Ferrer Medical Innovations, LLC, priority 2020, dated 2020)
Counter-ions that a name gives are not always drawn. Marks after values point to notes of the source that are not given here.

Experiments:
[1] = tested on: avian H7N9 influenza virus; conditions: mice; cited from earlier work
[2] = tested on: divergent influenza A strains and influenza B strain; conditions: cited from earlier work
[3] = tested on: SARS-CoV-2, USA-WA1/2020 strain; assay type: cell-based; conditions: nasal spray 90%, ethanol 67.5%

Row | SMILES | protection from fatal challenge [1] | inhibitory activity against influenza [2] | Virus Titer ([3]; after 25 minutes incubation with virus at 22±2° C., average of three replicates ± standard deviation) [Log10 CCID50/mL] | Log Reduction Value ([3]; reduction of virus compared with virus control (water), 25 minutes incubation at 22±2° C.)
1 | CN(C)CCC(c1ccc(Cl)cc1)c1ccccn1 (stereo not shown) [Chlorpheniramine, chlorpheniramine maleate] | protects mice from fatal challenge | potent inhibitory activity | – | –
2 | CCO [Ethanol] | – | – | 1.0 ± 0.6 | 3.2***
